Consider three molecules from article PMC9479156 (Frontiers in Pharmacology, 2022).

Like-named read-outs stand apart in the source and are kept apart here.

Assay [1] concerns asexual blood stage P. falciparum NF54 (drug sensitive). Put plainly: SYBR Green I proliferation assay, asexual blood stage Pf NF54. The format is cell-based. The conditions noted are these: Plasmodium falciparum, NF54; asexual blood stage, SYBR Green I, 96 h, mean ± SEM; this study; read-out: IC50 NF54. The method, then:
In vitro cultivation of asexual and gametocyte P. falciparum parasites: P. falciparum asexual blood stage parasites were cultivated in human erythrocytes in RPMI-1640 media supplemented with AlbuMax II under sterile conditions and in a hypoxic environment (90% N2, 5% CO2, and 5% O2) at 37°C as described previously ([Coertzen et al., 2018]; [Wong et al., 2019]). Gametocytes were produced from asexual blood stage parasites in a stage-specific manner through induction of cellular stress as described previously ([Reader et al., 2015]; [Coertzen et al., 2018]; [Wong et al., 2019]; [Reader et al., 2022]).
DHA, artesunate, artemether, chloroquine (CQ), and methylene blue (MB) were used as reference drugs. All assay conditions are as previously described ([Coertzen et al., 2018]; [Wong et al., 2019]). […] Dose-responses were determined using a 2-fold serial drug dilution on in vitro 95% ring-stage intraerythrocytic Pf parasites (1% parasitemia, 1% hematocrit) at 37°C under 90% N2, 5% CO2, and 5% O2 atmospheric conditions, detecting SYBR green I fluorescence as a marker for parasite proliferation following a 96 h drug treatment ([Smilkstein et al., 2004]; [Verlinden et al., 2011]). Activity against the Pf drug-sensitive NF54 strain and the multi drug-resistant K1 (resistant to CQ, quinine, pyrimethamine, and cycloguanil), and W2 (resistant to CQ, quinine, pyrimethamine, and cycloguanil) strains was evaluated. […] Data analysis was performed using GraphPad Prism (version 6) software, intra-assay variability was monitored with Z-factors, and acceptable inter-assay reproducibility was determined from the percent coefficient of variation (CV) ([Reader et al., 2015]). […]
Activity was determined using the SYBR Green I based fluorescence assay on asexual blood stages of the NF54 (drug sensitive), K1 and W2 (drug resistant) strains of P. falciparum. […] Also included in Table 1 for direct comparison of activities against celastrol are data for the internal reference standards MB and artemisone recorded at the same time as for celastrol. […]

For assay [2], the system named is asexual blood stage Pf NF54. Put plainly: Fixed-ratio isobole drug combination assay (SYBR Green I). Format: cell-based, Plasmodium falciparum. On the procedure: The in vitro interactions of celastrol with artemisone and MB was determined using a fixed-ratio isobole analysis on Pf NF54 asexual parasites (SYBR Green I-based fluorescence). […] The fractional inhibitory concentration (FIC) for each drug in the combination was calculated as follows:
FIC = IC50 of drug A in combination with drug B/IC50 of drug A
The paired FIC values for the drugs in each combination were linearly plotted to provide the isobologram. The ΣFIC of FIC of drug A in combination with FIC of drug B was determined by calculating the mean FIC value, to obtain the representative FIC value for the drug combination. Data obtained were analysed in Excel, and sigmoidal dose-response curves and isobolograms were plotted using GraphPad 6.0. Experiments were performed in triplicate, and repeated 3 times.
As previously recorded for each of artemiside and artemisone in combination with MB ([Coertzen et al., 2018]), drug-drug interactions were monitored through evaluation of fractional inhibitory concentration (FIC) as determined by isobolograms. A mean ΣFIC<1.0 represents a synergistic interaction, >1.3 an antagonistic interaction and ΣFIC = 1 an indifferent or additive interaction. Isobologram analysis of the combinations of each of artemisone and MB in combination with celastrol was performed against the asexual stages of Pf NF54 using the SYBR Green I based assay. In Table 3 are shown the calculated FIC values for the independent combinations at each ratio as well as the ∑FIC values for each combination. In Figure 5 are presented the independent isoboles for each drug combination.

Assay [3] concerns asexual blood stage P. falciparum NF54 (drug sensitive). Details: method as in Coertzen et al., 2018; Wong et al., 2019. The conditions noted are these: SYBR Green I, mean ± SEM, ref Coertzen et al., 2018, Wong et al., 2019; cited from earlier work.
The subject of assay [4] is asexual blood stage P. falciparum K1 (multidrug resistant). The conditions noted are these: asexual blood stage, SYBR Green I, mean ± SEM; ref Coertzen et al., 2018; Wong et al., 2019; cited from earlier work.
Assay [5] has as its system asexual blood stage P. falciparum W2 (multidrug resistant). On the set-up: method as in Coertzen et al., 2018; Wong et al., 2019. The conditions noted are these: asexual blood stage, SYBR Green I, mean ± SEM; ref Coertzen et al., 2018; Wong et al., 2019; cited from earlier work.
In assay [6] the test system is immature stage II-III P. falciparum NF54 gametocytes. On the set-up: method as in Coertzen et al., 2018, Wong et al., 2019. The conditions noted are these: NF54 gametocytes, luciferase, 48 h, mean ± SEM; ref Coertzen et al., 2018, Wong et al., 2019; read-out: Immature stage II-III (luc 48 h) IC50; cited from earlier work.
For assay [7], the system named is late stage IV-V P. falciparum NF54 gametocytes. Details: method as in Coertzen et al., 2018, Wong et al., 2019. The conditions noted are these: NF54 gametocytes, luciferase, 72 h, mean ± SEM; ref Coertzen et al., 2018, Wong et al., 2019; read-out: Late stage IV-V (luc 72 h) IC50; cited from earlier work.
For assay [8], the system named is chloroquine sensitive Pf NF54 strain. The conditions noted are these: tritiated hypoxanthine assay; ref Figueiredo et al., 1998; Li et al., 2019; cited from earlier work.
The test system of assay [9] is multidrug resistant Pf K1 strain. The conditions noted are these: tritiated hypoxanthine assay; ref Figueiredo et al., 1998; Li et al., 2019; cited from earlier work.
For the next assay, the system named is Pf. On the set-up: method as in Lanfranchi et al., 2012. The conditions noted are these: tritiated hypoxanthine assay; ref Lanfranchi et al., 2012; cited from earlier work.

`CN(C)c1ccc2nc3ccc(=[N+](C)C)cc-3sc2c1` [Methylene Blue, methylene blue, reference compound]: the IC50 in assay [1] was 5.9 ± 0.8 nM; in assay [3], 5 nM; in [4] it was 6.45 ± 0.3 nM; in [5] it was 5.13 ± 0.31 nM; in assay [6] it was 95 ± 11.3 nM; in [7], 143 ± 16.7 nM. The FIC in assay [2] (MB:celastrol drug ratio 20:80, Pf NF54) was 0.70; in assay [2] (MB:celastrol drug ratio 40:60, Pf NF54), 0.67; in assay [2] (MB:celastrol drug ratio 60:40, Pf NF54), 0.66; in assay [2] (MB:celastrol drug ratio 80:20, Pf NF54), 0.79.

For the molecule `COC(=O)[C@]1(C)CC[C@]2(C)CC[C@]3(C)C4=CC=C5C(=CC(=O)C(O)=C5C)[C@]4(C)CC[C@@]3(C)[C@@H]2C1` [Pristimerin, pristimerin, reference compound], the half-inhibitory concentration (IC50) in [8] is 583 nM; in assay [9], 409 nM.

Turning to `CC1=CC(=O)c2ccccc2C1=O` [menadione], the concentration for half-maximal inhibition (IC50) with Pf is 9600 to 12000 nM.

The term IC50 denotes the concentration at which inhibition is half-maximal.
